Measured values from US12043645B2, “Adenosine analogs as methyltransferase inhibitors for treating cancer” (MEMORIAL SLOAN KETTERING CANCER CENTER, priority 2017, dated 2024).

Assays:
Format in all cases: cell-based
[1] = test system: HCC1954 breast cancer cells; experiment: Transwell invasion assay
Method: In another example, a compound's effect on cancer cell migration and invasion were evaluated in a transwell invasion assay. In one such example, addition of compound 6 in a concentration of 5 μM and 10 μM caused an approximately 50% and an approximately 75% reduction, respectively, of invasion of HCC1954 breast cancer cells in the assay.

[2] = test system: MDA-MB-231 cells (BAF155 and PABP1 biomarkers); experiment: EC50 assay: western blot of BAF155 and PABP1 biomarkers in MDA-MB-231 cells; conditions: Homo sapiens, 48 h, two days treatment
Method: (§1) 1˜2×10e^5 MCF-7 cells or MDA-MB-231 cells per were seeded into 6-well plate. Two days later, cells were treated with inhibitors or control for additional two days. Then cells were collected by trypsinization, washed with Dulbecco's phosphate buffer saline and lysed by suspension in lysis buffer. The suspension was kept on ice for 30 min to achieve complete lysis or the suspension can be sonicated to achieve complete lysis. After centrifugation, supernatant were collected and total protein was quantified, and western blot samples were prepared with the SDS sample buffer Proteins were transferred to a nitrocellulose membrane for 1.5 hr at 350 mA at cold room. Membranes were blocked with 5% nonfat milk dissolved in PBST at room temperature for 1 hour and incubated overnight with primary antibody diluted in 5% nonfat milk dissolved in PBST at 4° C. Membranes were then washed with PBST for 10 min/each three times, and incubated with HRP-conjugated secondary antibody for 1 hour at room temperature, and washed with PBST for 10 min/each three times, and then detected by ECL reaction and X-ray film exposure. BAF155 and PABP1 were used as biomarkers to determine the EC50 values.

[3] = test system: MCF-7 cells (BAF155 and PABP1 biomarkers); experiment: EC50 assay: western blot of BAF155 and PABP1 biomarkers in MCF-7 cells; conditions: Homo sapiens, MCF7, 48 h, two days treatment
Method: as §1

Row | EC50 [2] | EC50 [3] | SMILES | reduction of invasion of HCC1954 breast cancer cells ([1]; concentration of 5 μM) | reduction of invasion of HCC1954 breast cancer cells ([1]; concentration of 10 μM)
1 | < 0.5 µM | – | COc1ccc(CCNC(=O)C(CC[C@H](CNCc2ccccc2)C[C@H]2O[C@@H](n3cnc4c(N)ncnc43)[C@@H](O)C2O)NC(=O)CC(C)(C)C2=C(C)C(=O)C(C)=C(C)C2=O)cc1 (stereo partly shown) [Example 6] | approximately 50% | approximately 75%
2 | – | < 10 µM | CC1=CC(=O)C(C(C)(C)CC(=O)N[C@@H](CC[C@H](CNCc2ccccc2)C[C@H]2O[C@@H](n3cnc4c(N)ncnc43)[C@@H](O)C2O)C(=O)O)=CC1=O (stereo partly shown) [Example 4] | – | –
3 | – | 10 µM | CC(=O)Oc1cc(C)cc(C)c1C(C)(C)CC(=O)N[C@@H](CC[C@H](CNCc1ccccc1)C[C@H]1O[C@@H](n2cnc3c(N)ncnc32)[C@@H](O)C1O)C(=O)O (stereo partly shown) [Example 2] | – | –
4 | – | < 5 µM | COc1ccc(CCNC(=O)[C@H](CC[C@H](CNCc2ccccc2)C[C@H]2O[C@@H](n3cnc4c(N)ncnc43)[C@@H](O)C2O)NC(=O)CC(C)(C)c2c(C)cc(C)cc2OC(C)=O)cc1 (stereo partly shown) [Example 3] | – | –
5 | – | 15 µM | COc1ccc(CCNC(=O)[C@@H](N)CC[C@H](CNCc2ccccc2)C[C@H]2O[C@@H](n3cnc4c(N)ncnc43)[C@@H](O)C2O)cc1 (stereo partly shown) [Example 1] | – | –
